Laboratory results published in US5962314A, “Calcium receptor-active molecules” (priority 1997, dated 1999).
“Also recorded” adds a separate entry of the source. Read-outs that look alike come from different tables or passages of the source.

Assays:
Type in all cases: cell-based
[1] = target: T1, bovine parathyroid cell calcium receptor (Bos taurus, UniProt P35384); experiment: Cl- current in Xenopus oocytes expressing BoPCaR 1; conditions: for effect on Cl- current: BoPCaR 1-injected oocytes; for effect in control oocytes: uninjected, water or rat liver mRNA oocytes
T1 construct: expressed in transfected cells; host or cells: Xenopus laevis oocytes injected with BoPCaR 1 cRNA
T1 sequence (P35384 20-1085): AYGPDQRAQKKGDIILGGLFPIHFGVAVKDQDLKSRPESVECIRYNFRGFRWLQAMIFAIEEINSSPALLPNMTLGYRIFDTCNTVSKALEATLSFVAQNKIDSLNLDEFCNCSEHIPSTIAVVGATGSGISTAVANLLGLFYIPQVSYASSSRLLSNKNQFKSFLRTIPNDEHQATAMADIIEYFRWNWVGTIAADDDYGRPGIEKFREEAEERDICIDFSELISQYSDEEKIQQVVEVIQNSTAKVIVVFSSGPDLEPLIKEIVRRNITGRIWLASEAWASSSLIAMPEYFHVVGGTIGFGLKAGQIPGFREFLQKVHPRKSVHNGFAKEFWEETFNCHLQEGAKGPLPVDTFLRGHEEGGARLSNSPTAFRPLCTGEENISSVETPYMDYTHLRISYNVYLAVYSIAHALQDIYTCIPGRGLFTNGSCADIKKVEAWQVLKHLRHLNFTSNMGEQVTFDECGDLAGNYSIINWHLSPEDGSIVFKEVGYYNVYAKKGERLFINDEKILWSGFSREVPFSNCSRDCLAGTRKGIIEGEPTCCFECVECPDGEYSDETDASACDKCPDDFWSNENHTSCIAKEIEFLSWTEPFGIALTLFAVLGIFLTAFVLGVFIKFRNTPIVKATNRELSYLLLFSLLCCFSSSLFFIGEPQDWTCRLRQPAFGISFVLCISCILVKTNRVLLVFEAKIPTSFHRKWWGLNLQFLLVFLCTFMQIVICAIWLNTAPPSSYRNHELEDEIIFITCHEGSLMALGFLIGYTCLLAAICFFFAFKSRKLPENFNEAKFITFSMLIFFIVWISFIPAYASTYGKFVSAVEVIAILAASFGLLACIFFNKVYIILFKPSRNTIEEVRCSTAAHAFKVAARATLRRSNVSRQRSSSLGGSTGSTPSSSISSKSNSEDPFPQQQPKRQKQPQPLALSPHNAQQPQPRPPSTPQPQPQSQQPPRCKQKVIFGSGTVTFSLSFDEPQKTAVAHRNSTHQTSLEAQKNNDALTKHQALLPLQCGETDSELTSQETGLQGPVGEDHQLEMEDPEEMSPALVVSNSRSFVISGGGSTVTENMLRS
Protocol: Several pharmacological and biochemical criteria were used to identify this clone as encoding a bona fide bovine parathyroid Ca^2+ receptor. […] These responses increased markedly over a period of one to four days after injection of the eggs with cRNA prepared from the BoPCaR 1 cDNA. Furthermore, the ranges of the concentrations of the two cations eliciting this response were very similar to those shown previously to act on bovine parathyroid cells in vitro.
Xenopus oocytes were injected with BoPCaR 1, the 5.3 Kb cDNA encoding a bovine parathyroid cell calcium receptor as described in Example 25. After two to three days, Cl^- currents were examined in the oocytes using a two-electrode voltage clamp.
Xenopus oocytes were injected with BoPCaR 1 as described in Example 25. After two to three days, Cl^- currents were examined in the oocytes using two electrode voltage clamp.

[2] = target: T2, parathyroid cell calcium receptor (Bos taurus, UniProt P35384); experiment: cell-based
T2 sequence (P35384 20-1085): T1 sequence (P35384 20-1085)
Protocol: For example,. bovine parathyroid cells loaded with fura-2 are initially suspended in buffer containing 0.5 mM CaCl2. A test substance is added to the cuvette in a small volume (5-15 μl) and changes in the fluorescence signal are measured. Cumulative increases in the concentration of the test substance are made in the cuvette until some predetermined concentration is achieved or no further changes in fluorescence are noted.
Human parathyroid glands, were obtained from patients undergoing surgical removal of parathyroid tissue for primary or uremic hyperparathyroidism (uremic HPT), and were treated similarly to bovine tissue.
The cells were then pelleted, resuspended in the same buffer, but lacking the ester, and incubated a further 15 minutes at 37° C. The cells were subsequently washed twice with PCB containing 0.5 mM CaCl2 and 0.5% BSA and maintained at room temperature (about 20° C.). Immediately before use, the cells were diluted five-fold with prewarmed 0.5 mM CaCl2 -PCB to obtain a final BSA concentration of 0.1%. The concentration of cells in the cuvette used for fluorescence recording was 1-2×10^6 /ml.
The fluorescence of indicator-loaded cells was measured at 37° C. in a spectrofluorimeter (Biomedical Instrumentation Group, University of Pennsylvania, Philadelphia, Pa.) equipped with a thermostated cuvette holder and magnetic stirrer using excitation and emission wavelengths of 340 and 510 nm, respectively. […] Leakage of dye is dependent on temperature and most occurs within the first 2 minutes after warming the cells in the cuvette. Dye leakage increases only very slowly thereafter. To correct the calibration for dye leakage, cells were placed in the cuvette and stirred at 37° C. for 2-3 minutes. The cell suspension was then removed, the cells pelleted, and the supernatant returned to a clean cuvette. […] This estimate was subtracted from the apparent Fmin.

[3] = target: T3, human parathyroid cell calcium receptor (Homo sapiens, UniProt P41180); experiment: Cl- current in Xenopus oocytes expressing human parathyroid cell calcium receptor; conditions: for effect on Cl- current: 3 to 30 μM, 0.3 mM extracellular Ca2+
T3 construct: T7 cRNA injected into Xenopus oocytes
T3 sequence (P41180 with tags, fused parts or gaps INS536PLTFVLSVLQ/Q926R/E1011Q): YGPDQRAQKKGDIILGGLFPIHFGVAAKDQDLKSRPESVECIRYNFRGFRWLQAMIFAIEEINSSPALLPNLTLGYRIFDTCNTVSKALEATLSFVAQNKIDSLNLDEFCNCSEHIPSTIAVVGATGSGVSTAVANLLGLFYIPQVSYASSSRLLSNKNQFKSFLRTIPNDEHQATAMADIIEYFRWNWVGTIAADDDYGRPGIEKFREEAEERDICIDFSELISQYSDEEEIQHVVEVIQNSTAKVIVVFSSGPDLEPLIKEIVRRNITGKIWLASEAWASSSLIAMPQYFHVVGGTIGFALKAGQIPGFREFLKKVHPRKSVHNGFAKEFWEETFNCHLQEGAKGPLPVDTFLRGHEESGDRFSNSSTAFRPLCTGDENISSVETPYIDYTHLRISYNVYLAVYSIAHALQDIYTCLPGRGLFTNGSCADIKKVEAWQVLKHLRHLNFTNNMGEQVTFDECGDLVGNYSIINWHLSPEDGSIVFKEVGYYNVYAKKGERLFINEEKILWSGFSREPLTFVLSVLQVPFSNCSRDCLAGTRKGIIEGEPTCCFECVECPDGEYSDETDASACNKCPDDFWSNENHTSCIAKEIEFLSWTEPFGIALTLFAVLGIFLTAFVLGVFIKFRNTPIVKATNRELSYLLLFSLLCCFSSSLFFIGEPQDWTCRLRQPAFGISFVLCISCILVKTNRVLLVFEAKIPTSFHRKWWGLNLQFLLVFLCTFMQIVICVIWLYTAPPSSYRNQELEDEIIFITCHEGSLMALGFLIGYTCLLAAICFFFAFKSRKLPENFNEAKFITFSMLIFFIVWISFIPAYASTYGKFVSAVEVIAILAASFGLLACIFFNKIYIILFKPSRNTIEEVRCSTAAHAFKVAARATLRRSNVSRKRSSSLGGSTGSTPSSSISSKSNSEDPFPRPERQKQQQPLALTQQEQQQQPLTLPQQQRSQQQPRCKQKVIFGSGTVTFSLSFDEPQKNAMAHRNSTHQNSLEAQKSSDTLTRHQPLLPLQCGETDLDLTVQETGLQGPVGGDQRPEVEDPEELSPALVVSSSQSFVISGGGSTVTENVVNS
Protocol: Representative cDNA inserts for both size classes were subcloned into the plasmid vector pBluescript SK. Linearization followed by in vitro transcription using T7 RNA polymerase produced cRNA transcripts. The cRNA transcripts were injected into Xenopus oocytes (150 ng/μl RNA; 50 nl/oocyte) for functional analysis. Following incubation periods of 2-4 days, the oocytes were assayed for the presence of functional calcium receptors. Both clone types gave rise to functional calcium receptors as assessed by the stimulation of calcium-activated chloride currents upon addition of appropriate calcium receptor agonists. […] Thus, both clones encode a functional, human parathyroid cell calcium receptor.
Xenopus oocytes were injected with pHuPCaR 5.2, the 5.2 Kb cDNA encoding a parathyroid cell calcium receptor derived from a human parathyroid cell adenoma. (See Example 27.) After two to three days, Cl^- currents were measured in the oocytes using a two-electrode voltage clamp.

Compound	effect on Cl- current [1]	effective concentration range, Cl- current ([1]; BoPCaR 1 oocytes) [µM]	effect on Cl- current in absence of extracellular Ca2+ [1]	effect on [Ca2+]i [2]	effect on [Ca2+]i ([2]; 10 μM, Ca2+-free)	effect on [Ca2+]i ([2]; 100 μM, Ca2+-free)	effect on extracellular Ca2+-evoked increases in [Ca2+]i ([2]; neomycin B 30 μM / maximally effective concentration)	effect on intracellular Ca2+ ([2]; neomycin B 30 μM, protamine 1 μg/ml)	effect on Cl- current [3]	response in absence of extracellular Ca2+ [3]	effect in control oocytes [1]	activation of oocyte-expressed receptor [3]	effect on extracellular Ca2+ concentration-response curve [3]	effect on extracellular Ca2+ concentration-response curve [1]	effect on response to extracellular Ca2+ [2]	effect on [Ca2+]i in absence of extracellular Ca2+ ([2]; Ca2+-free buffer)
NC[C@@H]1O[C@H](O[C@H]2[C@@H](O)[C@H](O[C@@H]3[C@@H](O)[C@H](N)C[C@H](N)[C@H]3O[C@H]3O[C@H](CN)[C@@H](O)[C@H](O)[C@H]3N)O[C@@H]2CO)[C@H](N)[C@@H](O)[C@@H]1O [Neomycin]	large inward currents	20 to 100	persist despite removal of extracellular Ca^2+	evoked rapid and transient increases in [Ca^2+ ]i	did not by itself cause an increase in [Ca^2+ ]i	evoked a rapid and transient increase in [Ca^2+ ]i	blocks transient, but does not block steady-state increases in [Ca^2+ ]i; also recorded: blocked transient, but not steady-state increases in [Ca^2+ ]i	mobilization of intracellular Ca^2+	–	–	–	–	–	–	–	–
NCCCNCCCCNCCCNCCCNCCCNC(=O)Cc1c[nH]c2ccccc12 [NPS 019]	caused oscillatory increases in the Cl^-	–	persisted in the absence of extracellular Ca^2+	–	–	–	–	–	evoked increases in the Cl^-	persisted	Neither NPS 017 nor NPS 019 elicited changes in Cl^-	–	–	–	–	–
COc1cccc([C@@H](C)NCCCc2ccccc2Cl)c1 [NPS R-568, (R)-(+)-N-[3-(2-chlorophenyl)propyl]-α-methyl-3-methoxybenzylamine]	caused increases in the Cl^-	–	abolished in the absence of extracellular Ca^2+	evokes increases in [Ca^2+ ]i in bovine parathyroid cells in a stereospecific manner	–	–	–	–	evoked increases in the Cl^-	abolished	failed to evoke responses	activated the oocyte-expressed receptor at about the same concentrations	shifted the concentration-response curve to the left	potentiated the responses to submaximal concentrations of extracellular Ca^2+; also recorded: shift the extracellular Ca^2+ concentration-response curve to the left	shifts the concentration-response curve for extracellular Ca^2+; also recorded: shift to the left in the concentration-response curve for extracellular Ca^2+	fails to evoke increases in [Ca^2+ ]i; also recorded: do not cause the mobilization of intracellular Ca^2+
